# In patent US20250082687A1, “COMPOSITION FOR IMPROVING MEMORY OR COGNITIVE ABILITY, OR PREVENTING OR TREATING BRAIN NEUROLOGICAL DISEASE, COMPRISING PORCINE BRAIN ENZYME HYDROLYSATE” (UNIMED PHARMACEUTICALS INC., priority 2022, published 2025):
# Where a SMILES comes first, the peptide text is derived from it.
# Legend:
# [1] = Cytotoxicity of peptides (MTT cell viability); assay type: cell-based, human; conditions: human, SH-SY5Y cells, all tested concentrations (0.4˜40 ug/ml)
# Description: (§1) SH-SY5Y cells, a human neuronal cell line, were obtained from the Korean Cell Line Bank (Cat No. 22266) and were cultured in Roswell Park Memorial Institute (RPMI) 1640 Medium (RPMI 1640, Cytiba) medium containing 10% fetal bovine serum (FBS, Cytiba) and 100 IU/ml penicillin and 100 μg/ml streptomycin in a 5% CO2, 37° C. incubator.
# (§2) The human neuronal cell line SH-SY5Y was cultured and various concentrations of porcine brain enzyme hydrolysate-derived peptides were added to determine cell viability by MTT (methylthiazol tetrazolium bromide, Sigma Aldrich). Cells were seeded in appropriate amounts (1×10^5/well) in each well of a 24 well plate (BD, Falcon), treated with each concentration, and cell viability was determined after 48 hours of incubation in a 37° C. incubator. After 4 hours of reaction with MTT solution, the insoluble formazan crystals were dissolved by adding 400 μl of DMSO and the absorbance was measured with an ELISA reader (TECAN, Infinite M200 pro) at a wavelength of 570 nm.
# SH-SY5Y cells = test: Cytotoxicity of peptides (MTT cell viability); assay type: cell-based, human; conditions: 40 ug/mL (w/v), 48 hours
# Description: as §1, §2
Compound,viability at 48 h [1],cell viability (SH-SY5Y cells)
"CC[C@H](C)[C@H](NC(=O)[C@H](CO)NC(=O)[C@@H]1CCCN1)C(=O)N[C@@H](CO)C(=O)O [brPEP-1, PSIS] (H-PSIS-OH)",> 90%,93.05%±2.23%
"C[C@H](NC(=O)[C@@H]1CCCN1C(=O)CN)C(=O)NCC(=O)N1CCC[C@H]1C(=O)N[C@@H](CCC(N)=O)C(=O)NCC(=O)N1CCC[C@H]1C(=O)N[C@@H](CCCNC(=N)N)C(=O)O [brPEP-2, GPAGPQGPR]",> 90%,108.47%±5.20%
